Patent US20240190880A1 (THE REGENTS OF THE UNIVERSITY OF MICHIGAN, priority 2021, published 2024)

What follows are compounds tested against T1, ER (Homo sapiens, UniProt P03372) (assay: ER degradation activity, in-cell western blot analysis in T47D cells). Conditions: 16 hours, Table A does not say which cell line (T47D or MCF7), read-out: Potency (DC50).
T1 construct: host or cells: T47D and MCF7 human breast cancer cells
T1 sequence (P03372 1-595): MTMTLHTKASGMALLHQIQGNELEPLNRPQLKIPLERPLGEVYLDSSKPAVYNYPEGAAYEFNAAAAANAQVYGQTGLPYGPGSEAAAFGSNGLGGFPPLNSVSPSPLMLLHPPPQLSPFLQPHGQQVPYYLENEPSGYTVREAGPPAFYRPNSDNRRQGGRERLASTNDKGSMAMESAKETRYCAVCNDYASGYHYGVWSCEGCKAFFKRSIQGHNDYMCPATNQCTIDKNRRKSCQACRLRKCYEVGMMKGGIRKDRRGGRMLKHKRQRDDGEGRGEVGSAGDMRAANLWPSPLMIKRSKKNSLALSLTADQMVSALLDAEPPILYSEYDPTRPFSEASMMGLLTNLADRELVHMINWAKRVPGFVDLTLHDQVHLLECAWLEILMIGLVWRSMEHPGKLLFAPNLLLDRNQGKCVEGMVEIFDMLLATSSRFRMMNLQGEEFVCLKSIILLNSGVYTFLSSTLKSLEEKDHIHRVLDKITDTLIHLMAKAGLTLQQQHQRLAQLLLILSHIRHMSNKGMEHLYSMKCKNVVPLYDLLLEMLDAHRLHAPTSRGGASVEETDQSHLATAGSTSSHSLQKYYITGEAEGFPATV
Assay type: cell-based
Procedure, shortened: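 T47D cells cultured in DMEM with 10% FBS, treated with compounds (final 0.5% DMSO) for 16 h. ER level measured by in-cell western with anti-rabbit-680/anti-mouse-800 near-infrared detection. Relative ER percentage calculated against untreated and DMSO-treated wells set as 100%.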
With O=C1CCC(N2C(=O)c3cc4c(cc3C2=O)CN(CC2CCC(NC3CN(c5ccc([C@@H]6c7ccc(O)cc7CC[C@@H]6c6ccccc6)cc5)C3)CC2)C4)C(=O)N1 (stereo partly drawn) [E 337, 2-(2,6-dioxopiperidin-3-yl)-6-((4-((1-(4-((1R,2S)-6-hydroxy-2-phenyl-1,2,3,4-tetrahydronaphthalen-1-yl)phenyl)azetidin-3-yl)amino)cyclohexyl)methyl)-6,7-dihydropyrrolo[3,4-f]isoindole-1,3(2H,5H)-dione] the DC50 was > 100 nM.
In the case of O=C1CCC(N2C(=O)c3cc4c(cc3C2=O)CN(CC(=O)N2CC3(CCN(c5ccc([C@@H]6c7ccc(O)cc7CC[C@@H]6c6ccc(F)cc6)cc5)CC3)C2)CC4)C(=O)N1 (mixture of isomers) [E 164, rac-2-(2,6-dioxopiperidin-3-yl)-6-(2-(7-(4-((1R,2S)-2-(4-fluorophenyl)-6-hydroxy-1,2,3,4-tetrahydronaphthalen-1-yl)phenyl)-2,7-diazaspiro[3.5]nonan-2-yl)-2-oxoethyl)-5,6,7,8-tetrahydro-1H-pyrrolo[3,4-g]isoquinoline-1,3(2H)-dione], the DC50 is reported as 10 to 100 nM.
With O=C1CCC(N2C(=O)c3cc4c(cc3C2=O)CN(C(=O)CN2CCC3(CC2)CCN(c2ccc([C@@H]5c6ccc(O)cc6CC[C@@H]5c5ccccc5)cc2)CC3)CC4)C(=O)N1 (mixture of isomers) [E 161, rac-2-(2,6-dioxopiperidin-3-yl)-6-(2-(9-(4-((1R,2S)-6-hydroxy-2-phenyl-1,2,3,4-tetrahydronaphthalen-1-yl)phenyl)-3,9-diazaspiro[5.5]undecan-3-yl)acetyl)-5,6,7,8-tetrahydro-1H-pyrrolo[3,4-g]isoquinoline-1,3(2H)-dione] the DC50 was > 100 nM.
O=C1CCC(N2C(=O)c3cc4c(cc3C2=O)CN(CC(=O)N2CCC3(CC2)CCN(c2ccc([C@H]5c6ccc(O)cc6CC[C@H]5c5ccc(F)cc5)cc2)CC3)C4)C(=O)N1 (stereo partly drawn) [E 213, 2-(2,6-dioxopiperidin-3-yl)-6-(2-(9-(4-((1S,2R)-2-(4-fluorophenyl)-6-hydroxy-1,2,3,4-tetrahydronaphthalen-1-yl)phenyl)-3,9-diazaspiro[5.5]undecan-3-yl)-2-oxoethyl)-6,7-dihydropyrrolo[3,4-f]isoindole-1,3(2H,5H)-dione] gave a DC50 of 10 to 100 nM.
For C[C@@H]1Cc2c([nH]c3ccccc23)[C@@H](c2cnc(N3CCC(C(=O)N4CCC(N5Cc6cc7c(cc6C5)C(=O)N(C5CCC(=O)NC5=O)C7=O)CC4)CC3)nc2)N1CC(F)F (stereo partly drawn) [E 260, 6-(1-(1-(5-((1R,3R)-2-(2,2-difluoroethyl)-3-methyl-2,3,4,9-tetrahydro-1H-pyrido[3,4-b]indol-1-yl)pyrimidin-2-yl)piperidine-4-carbonyl)piperidin-4-yl)-2-(2,6-dioxopiperidin-3-yl)-6,7-dihydropyrrolo[3,4-f]isoindole-1,3(2H,5H)-dione], the DC50 was < 10 nM.
C[C@@H]1Cc2c([nH]c3ccccc23)[C@@H](c2c(F)cc(N3CCC(CN4CCC(CN5Cc6cc7c(cc6C5)C(=O)N(C5CCC(=O)NC5=O)C7=O)CC4)CC3)cc2F)N1CC(F)F (stereo partly drawn) [E 128, 6-((1-((1-(4-((1R,3R)-2-(2,2-difluoroethyl)-3-methyl-2,3,4,9-tetrahydro-1H-pyrido[3,4-b]indol-1-yl)-3,5-difluorophenyl)piperidin-4-yl)methyl)piperidin-4-yl)methyl)-2-(2,6-dioxopiperidin-3-yl)-6,7-dihydropyrrolo[3,4-f]isoindole-1,3(2H,5H)-dione] was tested, and the DC50 was < 10 nM.
In the case of O=C1CCC(N2C(=O)c3cc4c(cc3C2=O)CN(C2CCN(CC3CN(c5ccc([C@H]6c7ccc(O)cc7CC[C@H]6c6ccc(F)cc6)cc5)C3)CC2)C4)C(=O)N1 (stereo partly drawn) [E 276, 2-(2,6-dioxopiperidin-3-yl)-6-(1-((1-(4-((1S,2R)-2-(4-fluorophenyl)-6-hydroxy-1,2,3,4-tetrahydronaphthalen-1-yl)phenyl)azetidin-3-yl)methyl)piperidin-4-yl)-6,7-dihydropyrrolo[3,4-f]isoindole-1,3(2H,5H)-dione], the DC50 is reported as > 100 nM.
In the case of O=C1CCC(N2C(=O)c3cc4c(cc3C2=O)CN(CC2CN(CC3CN(c5ccc([C@@H]6c7ccc(O)cc7CC[C@@H]6c6ccc(F)cc6)cc5)C3)C2)C4)C(=O)N1 (stereo partly drawn) [E 278, 2-(2,6-dioxopiperidin-3-yl)-6-((1-((1-(4-((1R,2S)-2-(4-fluorophenyl)-6-hydroxy-1,2,3,4-tetrahydronaphthalen-1-yl)phenyl)azetidin-3-yl)methyl)azetidin-3-yl)methyl)-6,7-dihydropyrrolo[3,4-f]isoindole-1,3(2H,5H)-dione], the DC50 is reported as > 100 nM.
With C[C@@H]1Cc2c([nH]c3ccccc23)[C@@H](c2c(F)cc(C3CCC(C(=O)N4CCC(N5Cc6cc7c(cc6C5)C(=O)N(C5CCC(=O)NC5=O)C7)CC4)CC3)cc2F)N1CC(F)F (stereo partly drawn) [E 307, 3-(6-(1-(4-(4-((1R,3R)-2-(2,2-difluoroethyl)-3-methyl-2,3,4,9-tetrahydro-1H-pyrido[3,4-b]indol-1-yl)-3,5-difluorophenyl)cyclohexane-1-carbonyl)piperidin-4-yl)-1-oxo-3,5,6,7-tetrahydropyrrolo[3,4-f]isoindol-2(1H)-yl)piperidine-2,6-dione] the DC50 was < 10 nM.
CN(C1CCC(CN2Cc3cc4c(cc3C2)C(=O)N(C2CCC(=O)NC2=O)C4=O)CC1)C1CCN(c2ccc([C@@H]3c4ccc(O)cc4CC[C@@H]3c3ccccc3)cc2)CC1 (stereo partly drawn) [E 289, 2-(2,6-dioxopiperidin-3-yl)-6-((4-((1-(4-((1R,2S)-6-hydroxy-2-phenyl-1,2,3,4-tetrahydronaphthalen-1-yl)phenyl)piperidin-4-yl)(methyl)amino)cyclohexyl)methyl)-6,7-dihydropyrrolo[3,4-f]isoindole-1,3(2H,5H)-dione] was tested, and the DC50 was > 100 nM.
With O=C1CCC(N2C(=O)c3cc4c(cc3C2=O)CN(CC(=O)N2CCC3(CC2)CCN(c2ccc([C@@H]5c6ccc(O)cc6CC[C@@H]5c5ccccc5)cn2)CC3)C4)C(=O)N1 (mixture of isomers) [E 297, Rac-2-(2,6-dioxopiperidin-3-yl)-6-(2-(9-(5-((1S,2S)-6-hydroxy-2-phenyl-1,2,3,4-tetrahydronaphthalen-1-yl)pyridin-2-yl)-3,9-diazaspiro[5.5]undecan-3-yl)-2-oxoethyl)-6,7-dihydropyrrolo[3,4-f]isoindole-1,3(2H,5H)-dione] the DC50 was > 100 nM.
In the case of CN(C1CCN(c2ccc([C@@H]3c4ccc(O)cc4CC[C@@H]3c3ccccc3)cc2)CC1)C1CC(C(=O)N2Cc3cc4c(cc3C2)C(=O)N(C2CCC(=O)NC2=O)C4=O)C1 (stereo partly drawn) [E 362, 2-(2,6-dioxopiperidin-3-yl)-6-(3-((1-(4-((1R,2S)-6-hydroxy-2-phenyl-1,2,3,4-tetrahydronaphthalen-1-yl)phenyl)piperidin-4-yl)(methyl)amino)cyclobutane-1-carbonyl)-6,7-dihydropyrrolo[3,4-f]isoindole-1,3(2H,5H)-dione], the DC50 is reported as > 100 nM.
C[C@@H]1Cc2c([nH]c3ccccc23)[C@@H](c2c(F)cc(N3CCC(N4CC(CC(=O)N5Cc6cc7c(cc6C5)C(=O)N(C5CCC(=O)NC5=O)C7)C4)CC3)cc2F)N1CC(F)F (stereo partly drawn) [E 56, 3-(6-(2-(1-(1-(4-((1R,3R)-2-(2,2-difluoroethyl)-3-methyl-2,3,4,9-tetrahydro-1H-pyrido[3,4-b]indol-1-yl)-3,5-difluorophenyl)piperidin-4-yl)azetidin-3-yl)acetyl)-1-oxo-3,5,6,7-tetrahydropyrrolo[3,4-f]isoindol-2(1H)-yl)piperidine-2,6-dione] gave a DC50 of 10 to 100 nM.
O=C1CCC(N2Cc3cc4c(cc3C2=O)CN(C(=O)[C@H]2CC[C@@H](N3CC(Nc5ccc([C@@H]6c7ccc(O)cc7CC[C@@H]6c6ccccc6)cc5)C3)CC2)C4)C(=O)N1 (single isomer, unassigned) [E 361] was tested, and the DC50 was > 100 nM.

Same assay, conditions: compounds 16 hours, Table A does not say whether T47D or MCF7, read-out: Potency (DC50)
For C[C@@H]1Cc2c([nH]c3ccccc23)[C@@H](c2ncc(C3CCC(C(=O)N4CCC(N5Cc6cc7c(cc6C5)C(=O)N(C5CCC(=O)NC5=O)C7=O)CC4)CC3)cc2F)N1CC(F)F (stereo partly drawn) [E 406, 6-(1-(4-(6-((1S,3R)-2-(2,2-difluoroethyl)-3-methyl-2,3,4,9-tetrahydro-1H-pyrido[3,4-b]indol-1-yl)-5-fluoropyridin-3-yl)cyclohexane-1-carbonyl)piperidin-4-yl)-2-(2,6-dioxopiperidin-3-yl)-6,7-dihydropyrrolo[3,4-f]isoindole-1,3(2H,5H)-dione], the DC50 was > 100 nM.
Work on C[C@@H]1Cc2cc(O)ccc2[C@@H](c2c(F)cc(C3CCC(C(=O)N4CCC(N5Cc6cc7c(cc6C5)C(=O)N(C5CCC(=O)NC5=O)C7=O)CC4)CC3)cc2F)N1CC(F)F (stereo partly drawn) [E 487, 6-(1-(4-(4-((1S,3R)-2-(2,2-difluoroethyl)-6-hydroxy-3-methyl-1,2,3,4-tetrahydroisoquinolin-1-yl)-3,5-difluorophenyl)cyclohexane-1-carbonyl)piperidin-4-yl)-2-(2,6-dioxopiperidin-3-yl)-6,7-dihydropyrrolo[3,4-f]isoindole-1,3(2H,5H)-dione] yielded a DC50 of 10 to 100 nM.
In the case of O=C1CCC(N2C(=O)c3cc4c(cc3C2=O)CN(CC(=O)N2CCC3(CC2)CCN(c2ccc([C@@H]5c6ccc(-c7cn[nH]c7)cc6CC[C@@H]5c5ccccc5)cc2)CC3)C4)C(=O)N1 (stereo partly drawn) [E 510, 2-(2,6-dioxopiperidin-3-yl)-6-(2-oxo-2-(9-(4-((1R,2S)-2-phenyl-6-(1H-pyrazol-4-yl)-1,2,3,4-tetrahydronaphthalen-1-yl)phenyl)-3,9-diazaspiro[5.5]undecan-3-yl)ethyl)-6,7-dihydropyrrolo[3,4-f]isoindole-1,3(2H,5H)-dione], the DC50 is reported as > 100 nM.
